Laboratory results reported in patent publication US9951052B2, “Inhibitors of the renal outer medullary potassium channel” (Merck Sharp & Dohme Corp., priority 2013, dated 2018).
pIC50: −log10 of the molar value.

Molecular target: T1, hROMK (hKir1.1) (Homo sapiens, UniProt P48048)
T1 construct: expressed in transfected cells
T1 sequence (P48048 1-391): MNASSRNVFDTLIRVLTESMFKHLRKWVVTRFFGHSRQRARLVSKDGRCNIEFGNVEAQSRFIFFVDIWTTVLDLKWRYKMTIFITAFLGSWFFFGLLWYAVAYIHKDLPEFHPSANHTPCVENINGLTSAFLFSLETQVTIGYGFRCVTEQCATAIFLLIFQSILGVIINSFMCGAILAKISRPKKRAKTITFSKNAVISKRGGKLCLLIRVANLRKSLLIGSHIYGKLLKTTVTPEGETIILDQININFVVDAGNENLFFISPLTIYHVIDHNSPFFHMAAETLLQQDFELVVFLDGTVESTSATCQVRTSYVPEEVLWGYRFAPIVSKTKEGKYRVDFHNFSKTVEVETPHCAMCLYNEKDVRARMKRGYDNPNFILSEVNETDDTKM
Experiment: Thallium Flux Assay (ROMK channel functional thallium flux, FLIPR-Tetra)
Format: cell-based
Settings: HEK293 cells stably expressing hROMK (hKir1.1); 30 min incubation with compound; HCl salt run where final product was an HCl salt
Description: The following Thallium Flux Assay was performed on each of the final product compounds in the Examples. When the final product of an Example was an HCl salt, the salt was run in the Assay.
Cell Culture Conditions—HEK293 cells stably expressing hROMK (hKir1.1) were grown at 37° C. in a 10% CO2 humidified incubator in complete growth media: Dulbecco's Modified Eagle Medium supplemented with non-essential amino acids, Penicillin/Streptomycin/Glutamine, G418 and FBS. At >80% confluency, aspirate the media from the flask and rinse with 10 mL Calcium/Magnesium-free PBS. Add 5 mL of 1× trypsin (prepared in Ca/Mg Free PBS) to T-225 flask and return flask to 37° C./CO2 incubator for 2-3 minutes. To dislodge the cell, gently bang the side of the flask with your hand. Triturate the cells completely and then transfer the cells to 25 mL complete media. Centrifuge at 1,500 rpm for 6 min followed by resuspension in complete growth media and determine cell concentration. For typical re-seeding, 4E6 cells/T-225 flask will attain >80% confluency in 4 days. Under ideal growth conditions and appropriate tissue culture practices, this cell line is stable for 40-45 passages.
FluxOR Kit Components (Invitrogen F10017)
• FluxOR™ Reagent (Component A) • FluxOR™ Assay Buffer (Component B)—10× Concentrate • PowerLoad™ Concentrate (Component C)—100× Concentrate • Probenecid (Component D)—Lyophilized sample is kept at −20° C. Water soluble, 100× after solubilization in 1 mL water. Store at 4° C. • FluxOR™ Chloride-free Buffer (Component E)—5× Concentrate • Potassium sulfate (K2SO4) Concentrate (Component F)—125 mM in water. Store at 4° C. • Thallium sulfate (T12SO4) Concentrate (Component G)—50 mM in water. Store at 4° C. • DMSO (dimethyl sulfoxide, Component H)—1 mL (100%) Reagent Preparation: FluxOR Working Solutions • 1000× FluxOR™ Reagent: Reconstitute a vial of component A in 100 μl DMSO; Mix well; Store 10 μl aliquots at −20° C. • 1× FluxOR™ Assay Buffer: Dilute Component B 10-fold with water; Adjust pH to 7.4 with Hepes/NaOH; Filter and store at 4° C. • Probenecid/Assay Buffer: 100 mL of 1× FluxOR™ Assay Buffer; 1 mL of reconstituted component D; Store at 4° C. • Loading Buffer (per microplate): 10 μl 1000× FluxOR™ Reagent; 100 μl component C; 10 mL Probenecid/Assay Buffer • Compound Buffer (per microplate): 20 mL Probenecid/Assay Buffer; 0.3 mM ouabain (10 mM ouabain in water can be stored in amber bottle/aluminum foil at room temperature); Test compound • 1× FluxOR™ Chloride-Free Buffer: Prepare 1× working solution in water. Can be stored at room temperature • Stimulant Buffer (prepared at 5× final concentration in 1× FluxOR™ Chloride-Free Buffer): 7.5 mM Thallium sulfate and 0.75 mM Potassium sulfate (to give a final assay concentration of 3 mM Thallium/0.3 mM Potassium). Store at 4° C. when not in use.
Assay protocol—The ROMK channel functional thallium flux assay is performed in 384 wells, using the FLIPR-Tetra instrument. HEK-hKir1.1 cells are seeded in Poly-D-Lysine microplates and kept in a 37° C.-10% CO2 incubator overnight. On the day of the experiment, the growth media is replaced with the FluxOR™ reagent loading buffer and incubated, protected from light, at ambient temperature (23-25° C.) for 90 min. The loading buffer is replaced with assay buffer±test compound followed by 30 min incubation at ambient temperature, where the Thallium/Potassium stimulant is added to the microplate.
• 1. Seed HEK-hKir1.1 cells (50 μl at 20,000 cells/well) in 384-well PDL coated Microplates • 2. Allow cells to adhere overnight in humidified 37° C./10% CO2 incubator • 3. Completely remove cell growth media from microplate and replace with 25 μl loading buffer • 4. Incubate Microplate at room temperature, protected from light, for 90 min • 5. Remove loading buffer and replace with 25 μl 1× Assay Buffer±test compound. • 6. Incubate microplate at room temperature, protected from light, for 30 min • 7. […]

Compound | pIC50
Cc1nc(NC(=O)C2CCN(CCc3ccc4c(c3C)COC4=O)CC2)ccc1C#N [Example 7, N-(5-cyano-6-methylpyridin-2-yl)-1-(2-(4-methyl-1-oxo-1,3-dihydroisobenzofuran-5-yl)ethyl)piperidine-4-carboxamide] | 7.00
Cc1nc(NC(=O)C2(F)CCN(C[C@H](O)c3ccc4c(c3C)COC4=O)CC2)ccc1C#N [Example 51, (R)-N-(5-cyano-6-methylpyridin-2-yl)-4-fluoro-1-(2-hydroxy-2-(4-methyl-1-oxo-1,3-dihydroisobenzofuran-5-yl)ethyl)piperidine-4-carboxamide] | 6.66
Cc1c([C@@H](O)CN2CCC(C(=O)Nc3ccncc3)CC2)ccc2c1COC2=O [Example 35, (R)-1-(2-hydroxy-2-(4-methyl-1-oxo-1,3-dihydroisobenzofuran-5-yl)ethyl)-N-(pyridin-4-yl)piperidine-4-carboxamide] | 6.38
Cc1ccc(C#N)cc1NC(=O)C1CCN(CCc2ccc3c(c2C)COC3=O)CC1 [Example 2, N-(5-cyano-2-methylphenyl)-1-(2-(4-methyl-1-oxo-1,3-dihydroisobenzofuran-5-yl)ethyl)piperidine-4-carboxamide] | 6.34
Cc1c([C@@H](O)CN2CCC(O)(C(=O)Nc3ccns3)CC2)ccc2c1COC2=O [Example 38, (R)-4-hydroxy-1-(2-hydroxy-2-(4-methyl-1-oxo-1,3-dihydroisobenzofuran-5-yl)ethyl)-N-(isothiazol-5-yl)piperidine-4-carboxamide] | 6.96
Cc1c([C@@H](O)CN2CCC(C(=O)Nc3cnsc3)CC2)ccc2c1COC2=O [Example 28, (R)-1-(2-hydroxy-2-(4-methyl-1-oxo-1,3-dihydroisobenzofuran-5-yl)ethyl)-N-(isothiazol-4-yl)piperidine-4-carboxamide] | 7.00
Cc1c([C@@H](O)CN2CCC(F)(C(=O)Nc3cnns3)CC2)ccc2c1COC2=O [Example 53, (R)-4-fluoro-1-(2-hydroxy-2-(4-methyl-1-oxo-1,3-dihydroisobenzofuran-5-yl)ethyl)-N-(1,2,3-thiadiazol-5-yl)piperidine-4-carboxamide] | 6.59
CCOc1cc(NC(=O)C2CCN(CCc3ccc4c(c3)COC4=O)CC2)ccc1C#N [Example 12, N-(4-cyano-3-ethoxyphenyl)-1-[2-(1-oxo-1,3-dihydro-2-benzofuran-5-yl)ethyl]piperidine-4-carboxamide] | 7.52
COc1nsc(NC(=O)C2C3CN(C[C@H](O)c4ccc5c(c4C)COC5=O)CC32)n1 (stereo partly drawn) [Example 57, 3-((R)-2-hydroxy-2-(4-methyl-1-oxo-1,3-dihydroisobenzofuran-5-yl)ethyl)-N-(3-methoxy-1,2,4-thiadiazol-5-yl)-3-azabicyclo[3.1.0]hexane-6=carboxamide] | 6.51
Cc1c([C@@H](O)CN2CCC(F)(C(=O)N3CCc4cnccc43)CC2)ccc2c1COC2=O [Example 49, (R)-5-(2-(4-(2,3-dihydro-1H-pyrrolo[3,2-c]pyridine-1-carbonyl)-4-fluoropiperidin-1-yl)-1-hydroxyethyl)-4-methylisobenzofuran-1(3H)-one] | 6.70
Cc1c(CCN2CCC(C(=O)Nc3ccc4c(c3)COC4=O)CC2)ccc2c1COC2=O [Example 10, 1-(2-(4-methyl-1-oxo-1,3-dihydroisobenzofuran-5-yl)ethyl)-N-(1-oxo-1,3-dihydroisobenzofuran-5-yl)piperidine-4-carboxamide] | 8.00
N#Cc1cc(NC(=O)C2CCN(CCc3ccc4c(c3)COC4=O)CC2)ccc1F [Example 17, N-(3-cyano-4-fluorophenyl)-1-(2-(1-oxo-1,3-dihydroisobenzofuran-5-yl)ethyl)piperidine-4-carboxamide] | 6.39
COc1cc(NC(=O)C2CCN(CCc3ccc4c(c3)COC4=O)CC2)ccc1C#N [Example 13, N-(4-cyano-3-methoxyphenyl)-1-(2-(1-oxo-1,3-dihydroisobenzofuran-5-yl)ethyl)piperidine-4-carboxamide] | 7.52
Cc1cc(N(C)C(=O)C2CCN(C[C@H](O)c3ccc4c(c3C)COC4=O)CC2)sn1 [Example 44, (R)-1-(2-hydroxy-2-(4-methyl-1-oxo-1,3-dihydroisobenzofuran-5-yl)ethyl)-N-methyl-N-(3-methylisothiazol-5-yl)piperidine-4-carboxamide] | 7.70
Cc1c(C(O)CN2CCC(O)(C(=O)Nc3ccc(C#N)cn3)CC2)ccc2c1COC2=O (stereo in doubt) [Example 37, (R)-N-(5-cyanopyridin-2-yl)-4-hydroxy-1-(2-hydroxy-2-(4-methyl-1-oxo-1,3-dihydroisobenzofuran-5-yl)ethyl)piperidine-4-carboxamide] | 6.33
N#Cc1ccc(NC(=O)C2CCN(CCc3ccc4c(c3)COC4=O)CC2)c(OC(F)(F)F)c1 [Example 15, N-(4-cyano-2-(trifluoromethoxy)phenyl)-1-(2-(1-oxo-1,3-dihydroisobenzofuran-5-yl)ethyl)piperidine-4-carboxamide] | 6.74
Cc1c([C@@H](O)CN2CCC(C(=O)Nc3snc4ccncc34)CC2)ccc2c1COC2=O [Example 30, (R)-1-(2-hydroxy-2-(4-methyl-1-oxo-1,3-dihydroisobenzofuran-5-yl)ethyl)-N-(isothiazolo[4,3-c]pyridin-3-yl)piperidine-4-carboxamide] | 7.00
COc1cc(NC(=O)C2CCN(C[C@H](O)c3ccc4c(c3C)COC4=O)CC2)ccc1C#N [Example 26, (R)-N-(4-cyano-3-methoxyphenyl)-1-(2-hydroxy-2-(4-methyl-1-oxo-1,3-dihydroisobenzofuran-5-yl)ethyl)piperidine-4-carboxamide] | 6.82
N#Cc1cc(NC(=O)C2CCN(CCc3ccc4c(c3)COC4=O)CC2)n(-c2ccc(F)cc2)c1 [Example 21, N-(4-cyano-1-(4-fluorophenyl)-1H-pyrrol-2-yl)-1-(2-(1-oxo-1,3-dihydroisobenzofuran-5-yl)ethyl)piperidine-4-carboxamide] | 6.39
COc1nsc(NC(=O)C2CCN(C[C@H](O)c3ccc4c(c3C)COC4=O)CC2)n1 [Example 1, (R)-1-(2-Hydroxy-2-(4-methyl-1-oxo-1,3-dihydroisobenzofuran-5-yl)ethyl)-N-(3-methoxy-1,2,4-thiadiazol-5-yl)piperidine-4-carboxamide] | 6.77
Cc1c([C@@H](O)CN2CCC(C(=O)Nc3ccc(-n4cccn4)cc3)CC2)ccc2c1COC2=O [Example 23, (R)-N-(4-(1H-pyrazol-1-yl)phenyl)-1-(2-hydroxy-2-(4-methyl-1-oxo-1,3-dihydroisobenzofuran-5-yl)ethyl)piperidine-4-carboxamide] | 7.10
